Source: PubChem BioAssay AID248 (DTP/NCI, 2004)
Several values for one entry are separate records, joined by “and”; a condition that tells them apart may be missing. Equal values may be shown once. Toxic doses and inconclusive results are not listed.

Tested on: L1210 leukemia ip in BDF1 mice, survival T/C
Experiment: NCI In Vivo Anticancer Drug Screen. Data for tumor model L1210 Leukemia (intraperitoneal) in B6D2F1 (BDF1) mice
Details: higher = longer survival
How it was run: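 Tumor was transplanted into mice, which were then dosed with test compound or vehicle alone. Survival was recorded for each group, and the treated figure was expressed relative to the control figure.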

[1] = endpoint: mean survival time, dose: 100.0 mg/kg/injection, schedule: Q04DX002 (ip), vehicle: saline with Tween-80
[2] = endpoint: mean survival time, dose: 25.0 mg/kg/injection, schedule: Q04DX003 (ip), vehicle: saline
[3] = endpoint: mean survival time, dose: 50.0 mg/kg/injection, schedule: Q01DX001 (ip), vehicle: saline
[4] = endpoint: mean survival time, dose: 100.0 mg/kg/injection, schedule: Q04DX003 (ip), vehicle: saline with Tween-80
[5] = endpoint: mean survival time, dose: 200.0 mg/kg/injection, schedule: Q04DX003 (ip), vehicle: saline with Tween-80
[6] = endpoint: mean survival time, dose: 400.0 mg/kg/injection, schedule: Q04DX003 (ip), vehicle: saline with Tween-80
[7] = endpoint: mean survival time, dose: 100.0 mg/kg/injection, schedule: Q01DX009 (ip), vehicle: saline
[8] = endpoint: mean survival time, dose: 100.0 mg/kg/injection, schedule: Q04DX003 (ip), vehicle: saline
[9] = endpoint: mean survival time, dose: 75.0 mg/kg/injection, schedule: Q01DX001 (ip), vehicle: saline
[10] = endpoint: mean survival time, dose: 150.0 mg/kg/injection, schedule: Q01DX001 (ip), vehicle: saline
[11] = endpoint: mean survival time, dose: 100.0 mg/kg/injection, schedule: Q04DX003 (ip), vehicle: Klucel (hydroxypropylcellulose) (HPC)
[12] = endpoint: mean survival time, dose: 200.0 mg/kg/injection, schedule: Q04DX003 (ip), vehicle: Klucel (hydroxypropylcellulose) (HPC)
[13] = endpoint: mean survival time, dose: 400.0 mg/kg/injection, schedule: Q04DX003 (ip), vehicle: Klucel (hydroxypropylcellulose) (HPC)
[14] = endpoint: mean survival time, dose: 100.0 mg/kg/injection, schedule: Q01DX001 (ip), vehicle: saline
[15] = endpoint: mean survival time, dose: 200.0 mg/kg/injection, schedule: Q01DX001 (ip), vehicle: saline

Question: Which T/C (endpoint: mean survival time, dose: 100.0 mg/kg/injection, schedule: Q01DX009 (ip), vehicle: saline with Tween-80) does the source give for `COc1ccc(C(C)=O)c(O)c1C` here?
Answer: 111 % of control

Question: And the T/C (endpoint: mean survival time, dose: 200.0 mg/kg/injection, schedule: Q01DX009 (ip), vehicle: saline with Tween-80)?
Answer: 94 % of control

Question: What about the T/C (endpoint: mean survival time, dose: 400.0 mg/kg/injection, schedule: Q01DX009 (ip), vehicle: saline with Tween-80) of the same molecule?
Answer: 92 % of control

Question: Which T/C (endpoint: mean survival time, dose: 50.0 mg/kg/injection, schedule: Q01DX001 (ip), vehicle: Klucel (hydroxypropylcellulose) (HPC)) does the source give for `Cc1cccc(NC(=O)C2CCC(CC3CCCCC3)CC2)c1` (configuration not stated) here?
Answer: 89 % of control

Question: And the T/C (endpoint: mean survival time, dose: 100.0 mg/kg/injection, schedule: Q01DX001 (ip), vehicle: Klucel (hydroxypropylcellulose) (HPC))?
Answer: 89 % of control

Question: What about the T/C (endpoint: mean survival time, dose: 200.0 mg/kg/injection, schedule: Q01DX001 (ip), vehicle: Klucel (hydroxypropylcellulose) (HPC)) of the same molecule?
Answer: 87 % of control

Question: With `[Cl][Hg][Cl].c1ccc(N=P(c2ccccc2)(c2ccccc2)c2ccccc2)cc1` as the molecule, how does the T/C (endpoint: mean survival time, dose: 9.38 mg/kg/injection, schedule: Q01DX001 (ip), vehicle: other) read?
Answer: 96 % of control

Question: And the T/C (endpoint: mean survival time, dose: 18.75 mg/kg/injection, schedule: Q01DX001 (ip), vehicle: other)?
Answer: 102 % of control

Question: `CNc1c(C)cc(C)c(NC)c1C` was tested. Which T/C [1] did it give?
Answer: 107 % of control

Question: For `CS/C(N)=N/N`, which T/C (endpoint: mean survival time, dose: 12.5 mg/kg/injection, schedule: Q04DX003 (ip), vehicle: saline) is on record?
Answer: 100 % of control

Question: What about the T/C (endpoint: mean survival time, dose: 25.0 mg/kg/injection, schedule: Q01DX001 (ip), vehicle: saline) of the same molecule?
Answer: 90 % of control

Question: And the T/C [2]?
Answer: 106 % of control

Question: And the T/C [3]?
Answer: 101 % of control

Question: With `NC(=O)c1[nH]nc(C2OC(CO)C(O)C2O)c1O` (configuration not stated) as the molecule, how does the T/C (endpoint: mean survival time, dose: 2.5 mg/kg/injection, schedule: Q01DX009 (ip), vehicle: saline) read?
Answer: 115 % of control

Question: And the T/C (endpoint: mean survival time, dose: 2.5 mg/kg/injection, schedule: Q04DX003 (ip), vehicle: saline)?
Answer: 110 % of control

Question: And the T/C (endpoint: mean survival time, dose: 5.0 mg/kg/injection, schedule: Q01DX001 (ip), vehicle: saline)?
Answer: 109 % of control

Question: What about the T/C (endpoint: mean survival time, dose: 5.0 mg/kg/injection, schedule: Q01DX009 (ip), vehicle: saline) of the same molecule?
Answer: 96 % of control

Question: What about the T/C (endpoint: mean survival time, dose: 5.0 mg/kg/injection, schedule: Q04DX003 (ip), vehicle: saline) of the same molecule?
Answer: 111 % of control and 123 % of control

Question: What about the T/C (endpoint: mean survival time, dose: 6.6 mg/kg/injection, schedule: Q04DX003 (ip), vehicle: saline) of the same molecule?
Answer: 107 % of control

Question: And the T/C (endpoint: mean survival time, dose: 10.0 mg/kg/injection, schedule: Q01DX001 (ip), vehicle: saline)?
Answer: 113 % of control

Question: What about the T/C (endpoint: mean survival time, dose: 10.0 mg/kg/injection, schedule: Q04DX003 (ip), vehicle: saline) of the same molecule?
Answer: 113 % of control and 121 % of control

Question: And the T/C (endpoint: mean survival time, dose: 20.0 mg/kg/injection, schedule: Q01DX001 (ip), vehicle: saline)?
Answer: 111 % of control

Question: And the T/C (endpoint: mean survival time, dose: 20.0 mg/kg/injection, schedule: Q04DX003 (ip), vehicle: saline)?
Answer: 121 % of control

Question: And the T/C (endpoint: median survival time, dose: 0.5 mg/kg/injection, schedule: Q04DX003 (ip), vehicle: saline)?
Answer: 108 % of control

Question: And the T/C (endpoint: median survival time, dose: 1.0 mg/kg/injection, schedule: Q04DX003 (ip), vehicle: saline)?
Answer: 106 % of control and 107 % of control

Question: And the T/C (endpoint: median survival time, dose: 2.0 mg/kg/injection, schedule: Q04DX003 (ip), vehicle: saline)?
Answer: 107 % of control and 112 % of control

Question: What about the T/C (endpoint: median survival time, dose: 4.0 mg/kg/injection, schedule: Q04DX003 (ip), vehicle: saline) of the same molecule?
Answer: 109 % of control and 118 % of control

Question: What about the T/C (endpoint: median survival time, dose: 8.0 mg/kg/injection, schedule: Q04DX003 (ip), vehicle: saline) of the same molecule?
Answer: 112 % of control and 121 % of control

Question: How did the T/C (endpoint: mean survival time, dose: 8.0 mg/kg/injection, schedule: Q01DX001 (ip), vehicle: other) turn out when `CC1CCC(NC(=O)N(CCF)N=O)CC1` (configuration not stated) was run?
Answer: 115 % of control

Question: And the T/C (endpoint: mean survival time, dose: 26.0 mg/kg/injection, schedule: Q01DX001 (ip), vehicle: other)?
Answer: 433 % of control

Question: And the T/C (endpoint: mean survival time, dose: 40.0 mg/kg/injection, schedule: Q01DX001 (ip), vehicle: other)?
Answer: 500 % of control

Question: What about the T/C (endpoint: mean survival time, dose: 60.0 mg/kg/injection, schedule: Q01DX001 (ip), vehicle: other) of the same molecule?
Answer: 437 % of control

Question: How did the T/C (endpoint: mean survival time, dose: 12.5 mg/kg/injection, schedule: Q04DX002 (ip), vehicle: Klucel (hydroxypropylcellulose) (HPC)) turn out when `COC12C(CC3C4CC=C5CC(OC(C)=O)CCC5(C)C4CCC31C)C(c1ccccc1)=NN2c1ccccc1` (configuration not stated) was run?
Answer: 101 % of control

Question: What about the T/C (endpoint: mean survival time, dose: 25.0 mg/kg/injection, schedule: Q04DX002 (ip), vehicle: Klucel (hydroxypropylcellulose) (HPC)) of the same molecule?
Answer: 104 % of control

Question: What about the T/C (endpoint: mean survival time, dose: 50.0 mg/kg/injection, schedule: Q04DX002 (ip), vehicle: Klucel (hydroxypropylcellulose) (HPC)) of the same molecule?
Answer: 101 % of control

Question: How did the T/C [4] turn out when `CC(C)CCNC(=O)NS(=O)(=O)c1ccc(Cl)cc1` was run?
Answer: 107 % of control

Question: And the T/C [5]?
Answer: 97 % of control

Question: What about the T/C [6] of the same molecule?
Answer: 100 % of control

Question: Which T/C (endpoint: mean survival time, dose: 100.0 mg/kg/injection, schedule: Q01DX Z (ip), vehicle: methylcellulose (MC)) does the source give for `Clc1ccnc(SCc2ccccc2)n1` here?
Answer: 91 % of control

Question: What about the T/C (endpoint: mean survival time, dose: 200.0 mg/kg/injection, schedule: Q01DX Z (ip), vehicle: methylcellulose (MC)) of the same molecule?
Answer: 104 % of control

Question: What does the source list for `S=C(NCc1ccccc1)Nc1ncn[nH]1`?
Answer: T/C (endpoint: mean survival time, dose: 25.0 mg/kg/injection, schedule: Q01DX009 (ip), vehicle: saline): 100 % of control; T/C [2]: 92 % of control; T/C (endpoint: mean survival time, dose: 50.0 mg/kg/injection, schedule: Q01DX009 (ip), vehicle: saline): 94 % of control; T/C (endpoint: mean survival time, dose: 50.0 mg/kg/injection, schedule: Q04DX003 (ip), vehicle: saline): 92 % of control; T/C [7]: 90 % of control; T/C [8]: 92 % of control

Question: Which results are given for `OC(C[n+]1ccsc1)c1ccccc1` (configuration not stated)?
Answer: T/C [9]: 96 % of control; T/C [10]: 100 % of control

Question: For `CC(C)(C)OC(=O)NC1CCCCC1`, which T/C [1] is on record?
Answer: 111 % of control

Question: What about the T/C (endpoint: mean survival time, dose: 200.0 mg/kg/injection, schedule: Q04DX002 (ip), vehicle: saline with Tween-80) of the same molecule?
Answer: 101 % of control

Question: And the T/C (endpoint: mean survival time, dose: 400.0 mg/kg/injection, schedule: Q04DX002 (ip), vehicle: saline with Tween-80)?
Answer: 104 % of control

Question: With `C=C(C)c1c2ccccc2cc2cccc(Sc3ccccc3)c12` as the molecule, how does the T/C [4] read?
Answer: 95 % of control

Question: What about the T/C [5] of the same molecule?
Answer: 96 % of control

Question: What about the T/C [6] of the same molecule?
Answer: 95 % of control

Question: Which T/C [11] does the source give for `COc1ccc(C(=O)/C=C/c2ccc(OC)c(Br)c2)cc1` here?
Answer: 95 % of control

Question: What about the T/C [12] of the same molecule?
Answer: 95 % of control

Question: And the T/C [13]?
Answer: 94 % of control

Question: `S=C=Nc1cccc(Cl)c1` was tested. Which T/C [9] did it give?
Answer: 100 % of control

Question: What about the T/C [10] of the same molecule?
Answer: 96 % of control

Question: For `Nc1nc(N)c2cc(CNc3ccc(Cl)c(C(=O)NC(CC(=O)O)C(=O)O)c3)cnc2n1` (configuration not stated), which T/C [7] is on record?
Answer: 95 % of control

Question: And the T/C [8]?
Answer: 106 % of control

Question: And the T/C (endpoint: mean survival time, dose: 200.0 mg/kg/injection, schedule: Q01DX009 (ip), vehicle: saline)?
Answer: 94 % of control

Question: What about the T/C (endpoint: mean survival time, dose: 200.0 mg/kg/injection, schedule: Q04DX003 (ip), vehicle: saline) of the same molecule?
Answer: 93 % of control

Question: What about the T/C (endpoint: mean survival time, dose: 400.0 mg/kg/injection, schedule: Q01DX009 (ip), vehicle: saline) of the same molecule?
Answer: 89 % of control

Question: And the T/C (endpoint: mean survival time, dose: 400.0 mg/kg/injection, schedule: Q04DX003 (ip), vehicle: saline)?
Answer: 97 % of control

Question: With `CC(CCc1ccccc1)C12CCC(CC1O)C2` (configuration not stated) as the molecule, how does the T/C (endpoint: mean survival time, dose: 100.0 mg/kg/injection, schedule: Q04DX002 (ip), vehicle: Klucel (hydroxypropylcellulose) (HPC)) read?
Answer: 96 % of control

Question: What about the T/C (endpoint: mean survival time, dose: 200.0 mg/kg/injection, schedule: Q04DX002 (ip), vehicle: Klucel (hydroxypropylcellulose) (HPC)) of the same molecule?
Answer: 110 % of control

Question: And the T/C (endpoint: mean survival time, dose: 400.0 mg/kg/injection, schedule: Q04DX002 (ip), vehicle: Klucel (hydroxypropylcellulose) (HPC))?
Answer: 96 % of control

Question: What does the source list for `CN(C)C(=O)NCc1ccccc1`?
Answer: T/C [11]: 90 % of control; T/C [12]: 92 % of control; T/C [13]: 98 % of control

Question: What does the source list for `Cc1ccc(NC(=O)NNC(=O)CCCC(=O)NNC(=O)Nc2ccc(C)cc2)cc1`?
Answer: T/C [3]: 96 % of control; T/C [14]: 102 % of control; T/C [15]: 96 % of control; T/C (endpoint: mean survival time, dose: 400.0 mg/kg/injection, schedule: Q01DX001 (ip), vehicle: saline): 96 % of control

Question: What does the source list for `Cc1ccc(/C=C2\CCC3C(=O)CCCC3C2=O)cc1` (configuration not stated)?
Answer: T/C [14]: 107 % of control; T/C [15]: 89 % of control
